Drawing on paper PMC10503972, “Synthesis, predictions of drug-likeness, and pharmacokinetic properties of some chiral thioureas as potent enzyme inhibition agents” (Turkish Journal of Chemistry, 2021), this text covers IC50 for 18 molecules.

The target in one experiment is urease (Canavalia ensiformis, UniProt P07374). The conditions noted are these: read-out: Urease assay IC50; means ± S.E.M. of three parallel measurements.
For another experiment, the target named is tyrosinase. Kind of experiment: Tyrosinase inhibitory activity. Format: biochemical. The settings on record: means ± S.E.M. of three parallel measurements. The procedure:
The spectrophotometric analysis of tyrosinase inhibitory activities was performed according to the slightly modified literature procedures of Hearing.

Experiment [1] concerns the target acetylcholinesterase (AChE) from electric eel (Electrophorus electricus, UniProt O42275). The conditions noted are these: read-out: AChE assay IC50; means ± S.E.M. of three parallel measurements.
Protocol: (§1) Herein, acetylcholinesterase (AChE) from electric eel and butyrylcholinesterase (BChE) horse serum was used. The acetylthiocholine iodide and butyryl thiocholine chloride were utilized as substrates.
(§2) The bioactivity tests were carried out in triplicate at four different concentrations. Results are given as IC50 (μg/mL). The data were the mean ± S.E.M. (standard error of the meaning) of triplicate analyses of each concentration under the 95 % reliability (p < 0.05).
In experiment [2] the target is butyrylcholinesterase (BChE) horse serum (Equus caballus, UniProt P81908). The experiment in a line: Anticholinesterase inhibitory activity, BChE assay (Ellman's method). The settings on record: read-out: BChE assay IC50; means ± S.E.M. of three parallel measurements. For orientation: Ellman's reagent forms a yellow product with free thiols.
Chain of butyrylcholinesterase (BChE) horse serum (P81908 whole entry): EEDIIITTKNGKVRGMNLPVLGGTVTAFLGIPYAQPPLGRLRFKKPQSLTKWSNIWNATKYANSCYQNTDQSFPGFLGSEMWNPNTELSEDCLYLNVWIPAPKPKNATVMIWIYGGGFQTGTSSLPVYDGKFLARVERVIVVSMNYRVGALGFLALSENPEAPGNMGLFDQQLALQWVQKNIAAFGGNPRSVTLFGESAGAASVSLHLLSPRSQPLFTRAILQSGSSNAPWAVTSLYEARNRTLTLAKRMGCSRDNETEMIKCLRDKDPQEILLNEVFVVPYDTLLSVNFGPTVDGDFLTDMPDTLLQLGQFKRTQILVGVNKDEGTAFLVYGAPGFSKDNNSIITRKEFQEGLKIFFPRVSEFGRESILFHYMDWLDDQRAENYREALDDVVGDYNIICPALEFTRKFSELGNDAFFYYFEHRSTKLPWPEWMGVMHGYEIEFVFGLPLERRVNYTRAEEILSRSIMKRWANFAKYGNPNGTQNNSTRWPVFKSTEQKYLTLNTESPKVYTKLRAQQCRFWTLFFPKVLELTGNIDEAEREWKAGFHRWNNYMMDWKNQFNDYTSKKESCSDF
Protocol: as §1, §2

Chain of acetylcholinesterase (AChE) from electric eel (O42275 24-633): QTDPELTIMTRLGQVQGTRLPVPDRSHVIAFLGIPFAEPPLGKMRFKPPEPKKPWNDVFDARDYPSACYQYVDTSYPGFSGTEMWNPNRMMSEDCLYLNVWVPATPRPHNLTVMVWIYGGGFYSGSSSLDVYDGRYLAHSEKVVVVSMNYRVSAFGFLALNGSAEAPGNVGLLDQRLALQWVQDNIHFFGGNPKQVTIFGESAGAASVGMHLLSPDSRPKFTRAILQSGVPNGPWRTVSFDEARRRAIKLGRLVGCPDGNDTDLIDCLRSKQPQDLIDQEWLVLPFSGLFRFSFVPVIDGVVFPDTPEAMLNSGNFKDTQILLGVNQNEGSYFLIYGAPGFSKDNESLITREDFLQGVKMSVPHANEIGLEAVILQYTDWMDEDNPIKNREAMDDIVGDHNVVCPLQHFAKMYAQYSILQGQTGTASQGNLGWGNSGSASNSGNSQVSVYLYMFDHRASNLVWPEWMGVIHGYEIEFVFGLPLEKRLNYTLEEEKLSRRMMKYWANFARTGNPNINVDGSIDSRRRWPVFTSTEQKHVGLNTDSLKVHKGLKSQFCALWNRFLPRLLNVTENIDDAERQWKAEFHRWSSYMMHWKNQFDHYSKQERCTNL
Chain of urease (P07374 whole entry, looked up): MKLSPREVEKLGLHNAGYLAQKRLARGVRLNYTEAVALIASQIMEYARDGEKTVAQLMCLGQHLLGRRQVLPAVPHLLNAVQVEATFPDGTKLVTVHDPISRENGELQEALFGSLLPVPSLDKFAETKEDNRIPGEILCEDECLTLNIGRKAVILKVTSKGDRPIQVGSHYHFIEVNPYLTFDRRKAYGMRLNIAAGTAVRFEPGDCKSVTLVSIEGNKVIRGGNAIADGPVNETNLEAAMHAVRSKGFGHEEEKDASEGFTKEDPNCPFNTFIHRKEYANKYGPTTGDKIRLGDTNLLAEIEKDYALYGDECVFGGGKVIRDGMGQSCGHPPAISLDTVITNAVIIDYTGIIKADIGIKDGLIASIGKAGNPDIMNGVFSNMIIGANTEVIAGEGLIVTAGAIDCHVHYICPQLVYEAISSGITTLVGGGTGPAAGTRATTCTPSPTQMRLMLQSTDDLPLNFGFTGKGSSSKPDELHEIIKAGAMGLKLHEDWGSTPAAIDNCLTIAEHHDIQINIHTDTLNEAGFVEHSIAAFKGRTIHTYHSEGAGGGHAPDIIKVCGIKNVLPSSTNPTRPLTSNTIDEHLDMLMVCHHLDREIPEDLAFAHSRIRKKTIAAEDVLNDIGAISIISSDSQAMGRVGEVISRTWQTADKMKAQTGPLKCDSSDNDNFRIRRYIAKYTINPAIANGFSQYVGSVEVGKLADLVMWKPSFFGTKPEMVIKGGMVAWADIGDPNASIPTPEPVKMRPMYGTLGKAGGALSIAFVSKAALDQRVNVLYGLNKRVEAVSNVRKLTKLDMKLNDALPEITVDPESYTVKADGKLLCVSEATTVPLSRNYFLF
Protocol for urease: Solutions of chiral thioureas (1 – 17) were prepared at four different concentrations, i.e., 400, 200, 100, and 50 μM for urease inhibitory assay in EtOH. Additionally, EtOH was used as a control, while thiourea was used as urease standards. […] The spectrophotometric analysis of urease inhibitory activity was performed according to the literature procedures by measuring ammonia production using the indophenol method as described earlier [37].
as §2

For `NC(N)=S` [Thiourea], on urease, the IC50 came out at 24.2 ± 0.3 µM.

With “N-(2,4-dimethoxyphenyl)-N′-(2-mercapto-carboxyethanyl)thiourea [Compound 10]”, the IC50 on tyrosinase was determined as 1500 ± 300 µM; in experiment [1], 6.8 ± 1.1 µM; in experiment [2], 45.8 ± 0.4 µM.

With “N-(2,5-dichlorophenyl)-N′-(2-mercapto-carboxyethanyl)thiourea [Compound 15]”, the half-maximal inhibitory concentration (IC50) at tyrosinase is 22200 ± 900 µM; in experiment [1], 44.6 ± 0.3 µM; in experiment [2], 82.9 ± 0.4 µM.

Turning to “N-(2,5-dimethoxyphenyl)-N′-(2-mercapto-carboxyethanyl)thiourea [Compound 11]”, the IC50 against tyrosinase turned out to be 2900 ± 200 µM; in experiment [1], 7.2 ± 0.5 µM; in experiment [2], 49.7 ± 0.9 µM.

With “N-(2-chloro-5-(trifluoromethyl)phenyl)-N′-(2-mercapto-carboxyethanyl)thiourea [Compound 9]”, the 50% inhibitory concentration (IC50) is 15700 ± 500 µM against tyrosinase and 80 ± 0.6 µM in experiment [2].

“N-(3,4,5-trimethoxyphenyl)-N′-(2-mercapto-carboxyethanyl)thiourea [Compound 14]”: the results for the IC50 (at tyrosinase; in experiment [1]; in experiment [2]) were 1100 ± 100 µM, 4.8 ± 0.9 µM and 29.5 ± 1.1 µM, respectively.

“N-(3,4-dimethoxyphenyl)-N′-(2-mercapto-carboxyethanyl)thiourea [Compound 12]”: the half-maximal inhibitory concentration (IC50) at tyrosinase was found to be 1600 ± 600 µM; in experiment [1], 7.8 ± 0.6 µM; in experiment [2], 54 ± 1.3 µM.

Regarding “N-(3,5-dimethoxyphenyl)-N′-(2-mercapto-carboxyethanyl)thiourea [Compound 13]”, the figures for the IC50 (against tyrosinase; in experiment [1]; in experiment [2]) were 2200 ± 400 µM, 5.7 ± 1 µM and 37.2 ± 0.1 µM, respectively.

For the molecule “N-(4-(diethylamino)phenyl)-N′-(2-mercapto-carboxyethanyl)thiourea [Compound 17]”, the IC50 against tyrosinase is 5300 ± 800 µM; in experiment [1] it was 3.9 ± 0.6 µM; in experiment [2], 18.1 ± 0.5 µM.

Consider “N-(4-(dimethylamino)phenyl)-N′-(2-mercapto-carboxyethanyl)thiourea [Compound 16]”, for which the IC50 at tyrosinase amounted to 4700 ± 300 µM; in experiment [1], 4.2 ± 0.6 µM; in experiment [2], 24.6 ± 0.7 µM.

For “N-(4-(trifluoromethyl)phenyl)-N′-(2-mercapto-carboxyethanyl)thiourea [Compound 5]”, the IC50 amounted to 10400 ± 200 µM against tyrosinase, 16.7 ± 0.2 µM in experiment [1] and 64.3 ± 0.7 µM in experiment [2].

As to “N-(4-bromophenyl)-N′-(2-mercapto-carboxyethanyl)thiourea [Compound 2]”, the half-maximal inhibitory concentration (IC50) against tyrosinase worked out at 28800 ± 100 µM; in experiment [1] it was 36.4 ± 0.2 µM; in experiment [2] it was 75.1 ± 0.5 µM.

Turning to “N-(4-chlorophenyl)-N′-(2-mercapto-carboxyethanyl)thiourea [Compound 3]”, the values for the 50% inhibitory concentration (IC50) (at tyrosinase; in experiment [1]; in experiment [2]) were 16100 ± 900 µM, 31.7 ± 0.8 µM and 72.8 ± 1.1 µM, respectively.

As for “N-(4-cyanophenyl)-N′-(2-mercapto-carboxyethanyl)thiourea [Compound 7]”, the 50% inhibitory concentration (IC50) against tyrosinase was 35000 ± 1100 µM; in experiment [1] it was 46.8 ± 1.3 µM; in experiment [2], 84.4 ± 0.9 µM.

Turning to “N-(4-fluorophenyl)-N′-(2-mercapto-carboxyethanyl)thiourea [Compound 4]”, the IC50 against tyrosinase stood at 12500 ± 300 µM; in experiment [1] it was 28.5 ± 0.5 µM; in experiment [2], 70.4 ± 0.9 µM.

With “N-(4-methoxyphenyl)-N′-(2-mercapto-carboxyethanyl)thiourea [Compound 6]”, the IC50 against tyrosinase worked out at 1900 ± 500 µM; in experiment [1], 8.1 ± 0.9 µM; in experiment [2], 58.2 ± 0.1 µM.

Take “N-(5-chloro-2-methoxyphenyl)-N′-(2-mercapto-carboxyethanyl)thiourea [Compound 8]”: the IC50 is 4000 ± 600 µM against tyrosinase, 9.5 ± 1.2 µM in experiment [1] and 61.2 ± 0.5 µM in experiment [2].

Consider “N-phenyl-N′-(2-mercapto-carboxyethanyl)thiourea [Compound 1]”, for which the IC50 on tyrosinase was found to be 9700 ± 1000 µM; in experiment [1], 23.4 ± 1.2 µM; in experiment [2], 66 ± 0.1 µM.

The term IC50 denotes the concentration at which inhibition is half-maximal.
